Test system: FD-MSCs
Test: PLIN and PPARγ2 immunostaining of differentiated FD-MSC cultures
Type: cell-based, human
Conditions: SB-treated cultures
Protocol: All assays were performed between 7 and 15 passages. For osteocyte differentiation, mature MSCs were grown in 24 well culture plates to 100% confluency in MesenCult-ACF and induced to differentiate in OsteoLife Complete Osteogenesis Medium (Lifeline Cell Technology) for 21 days prior to staining with Lifeline Alizarin Red Stain to visualize calcium deposition. For chondrocyte differentiation. For beige adipogenic precursor generation, cells were grown in 24 well culture plates to 90% confluence and treated with 5 uM SB413542 (Sigma) and 10 nM human IL-4 (Peprotech) for 2 days. For beige adipogenic induction, adipogenic precursors are differentiated for 3 days with adipogenic medium consisting of T3 (2 nM), insulin (170 nM), rosiglitazone (1 μM), SB413542 (5 uM), IBMX (0.5 mM), dexamethasone (5 μM) and indomethacin (125 μM) in EGM-2 medium (Lonza) supplemented with the BulletKit minus FGF2 (modified from^33). Thereafter, cells are maintained in adipogenic medium without IBMX, dexamethasone and indomethacin. The medium was changed every 3 days and adipocytes were fully differentiated by 9-12 days as determined by lipid accumulation and peak expression of UCP1.
Cell Isolation, Expansion and Differentiation of Interscapular Brown Adipose Tissue Preadipocytes • 1. Prior to adipose cell isolation, warm DMEM, FBS and cell wash buffer to room temperature. • 2. […]

## NC(=O)c1ccc(-c2nc(-c3ccc4c(c3)OCO4)c(-c3ccccn3)[nH]2)cc1 [SB, SB431542]
  cells in culture that are mature adipocytes (PLIN and PPARγ2 staining): 87%-88%

— patent US12312599B2, “Methods, compositions, and kits for producing beige adipocytes and treating metabolic disorders” (MaineHealth, priority 2018, dated 2025)
